Patent US8613927B2, “High affinity human antibodies to human nerve growth factor” (Regeneron Pharmaceuticals, Inc., priority 2007, dated 2013)

Key:
[1] = target: T1, human NT-3 binding to human TrkB-hFc (Homo sapiens, UniProt P20783); assay: BIACORE, NT-3 binding to TrkB-hFc surface in presence of antibody; conditions: 20 nM NT-3 + 500 nM sample; normalized to IgG1 control
T1 sequence (P20783 139-257): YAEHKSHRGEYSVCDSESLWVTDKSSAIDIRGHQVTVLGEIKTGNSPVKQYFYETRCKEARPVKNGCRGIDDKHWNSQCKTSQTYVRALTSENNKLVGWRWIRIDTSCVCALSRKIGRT
Method: (§1) Human TrkA-hFc (9300 RU), human TrkB-hFc (6000 RU), human TrkC-hFc (9100 RU) and human p75-hFc (7500 RU) were covalently coupled to BIACORE® CM5 chip surfaces by amine-coupling procedure. […] The binding mixture was first incubated at room temperature to reach equilibrium (about 1 hr) and then was injected over the above TrkA-hFc, TrkB-hFc, TrkC-hFc and p75-hFc surfaces. The level of human NT-3 binding in each sample was measured. The binding RU from each sample mixture was normalized according to the RU value from the negative control sample (i.e., 20 nM human NT-3 with 500 nM AVASTIN®) and presented as % binding to Trk surfaces (Table 9).

C57BL/6 mice = assay: Post-operative incision pain model, mechanical allodynia in von Frey test; type: in vivo, mouse; conditions: Table 17
Method: Thermal hyperalgesia was studied in the Hargreaves' test and mechanical allodynia was tested in the von Frey test. In this latter test, mice were tested after being acclimated for 2-3 hours for 4 days in an apparatus with a wire mesh floor. The test was performed by applying, in ascending order, a series of von Frey hairs through the wire mesh onto the plantar surface of the hind paw with the incision. A response was considered positive if the paw was raised from the platform in response to application of the filament. Starting from the thinnest hair, each von Frey filament was applied up to five times until a response was observed.

[2] = target: T2, human NT-3 binding to human TrkA-hFc (Homo sapiens, UniProt P20783); assay: BIACORE, NT-3 binding to TrkA-hFc surface in presence of antibody; conditions: 20 nM NT-3 + 500 nM sample; normalized to IgG1 control
T2 sequence (P20783 139-257): T1 sequence (P20783 139-257)
Method: as §1

[3] = target: T3, human NT-3 binding to human p75-hFc (Homo sapiens, UniProt P20783); assay: BIACORE, NT-3 binding to p75-hFc surface in presence of antibody; conditions: 20 nM NT-3 + 500 nM sample; normalized to IgG1 control
T3 sequence (P20783 139-257): T1 sequence (P20783 139-257)
Method: as §1

C57BL/6 male mice = assay: Seltzer model of neuropathic pain, Hargreaves' test; type: in vivo, mouse
Excerpt: Neuropathic pain. The mouse Seltzer model of neuropathic pain (Malmberg et al. (1998) Pain 76:215-222) was used with C57BL/6 male mice, in which a partial nerve injury was produced by tying a tight ligature with a 7-0 silk suture around approximately ⅓ to ½ the diameter of the sciatic nerve of one single thigh per mouse. Post-surgery, the mice were allowed to recover for at least two days and then they were studied for several weeks post-surgery for thermal hyperalgesia in the Hargreaves' test. Controls were sham-operated mice in which the sciatic nerve was exposed and elevated but not tied. Following surgery, the mice were tested at day […] and at day 7 post-surgery to confirm that the thermal hyperalgesia had developed.
Following the Seltzer surgery, mice were tested at days 5 and 7 post-surgery to confirm that the thermal hyperalgesia had developed.

[4] = target: T4, human NT-3 binding to human TrkC-hFc (Homo sapiens, UniProt P20783); assay: BIACORE, NT-3 binding to TrkC-hFc surface in presence of antibody; conditions: 20 nM NT-3 + 500 nM sample; normalized to IgG1 control
T4 sequence (P20783 139-257): T1 sequence (P20783 139-257)
Method: as §1

rat NGF (rNGF) = rat NGF (rNGF) (Rattus norvegicus, UniProt P25427); assay: BIACORE binding affinity to rat NGF
Method: Antigen binding affinities of the antibodies for human NGF were determined by surface kinetics using a real-time biosensor surface plasmon resonance assay (BIACORE™). Antibodies were captured on either a goat, anti-human or anti-mouse IgG polyclonal antibody surface created by direct amine coupling of the capture antibody to a BIACORE™ chip. Various concentrations of human NGF were injected over the captured antibody surfaces while the association of the antigen to the antibody and the dissociation of the bound complex were monitored in real time. Kinetic analysis was performed to obtain the equilibrium dissociation constant (KD) and dissociation rate constant, and the latter was used to calculate the antigen/antibody complex dissociation t1/2 (Table 1).
Human NGF (NGF) is highly homologous in amino acid sequence to mouse NGF (mNGF) and rat NGF (rNGF) with about 90% identity. The binding affinities of the antibodies to both mNGF and rNGF were determined as described above.
The binding affinity of selected purified anti-NGF antibodies to mNGF and rNGF were also determined (Table 6).

Chain of rat NGF (rNGF) (P25427 122-241): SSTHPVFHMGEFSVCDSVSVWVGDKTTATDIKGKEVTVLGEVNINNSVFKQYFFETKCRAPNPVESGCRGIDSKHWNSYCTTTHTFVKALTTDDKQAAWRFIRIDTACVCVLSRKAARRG

## tanezumab [RN624]
[1]
  % binding to TrkB-hFc surface: 8%
C57BL/6 mice; 25 mg/kg i.p. on day 1 post-surgery, Baseline
  Paw Withdrawal Threshold: 1.314 ± 0.137 g
C57BL/6 mice; 25 mg/kg i.p., 5 hr after treatment
  Paw Withdrawal Threshold: 0.083 ± 0.053 g
C57BL/6 mice; 25 mg/kg i.p., 22 hr after treatment
  Paw Withdrawal Threshold: 0.610 ± 0.123 g
C57BL/6 mice; 25 mg/kg i.p., 45 hr after treatment
  Paw Withdrawal Threshold: 0.909 ± 0.216 g
C57BL/6 mice; 25 mg/kg i.p., 70 hr after treatment
  Paw Withdrawal Threshold: 1.143 ± 0.189 g
C57BL/6 mice; 25 mg/kg i.p., Day 1 (post-surgery, before injection)
  Paw Withdrawal Threshold: 0.010 ± 0.002 g
[2]
  % binding to TrkA-hFc surface: 7%
[3]
  % binding to p75-hFc surface: 19%
C57BL/6 male mice; 50 mg/kg s.c. or i.p. at day 7 post-surgery, p<0.001-0.05
  pain relief: Significant pain relief was observed
C57BL/6 male mice; Table 25, 50 mg/kg s.c. at day 7, day 5 after surgery
  mean percent change from Hargreaves baseline: −53.5 ± 6.3%
C57BL/6 male mice; Table 25, 50 mg/kg s.c. at day 7, day 7
  mean percent change from Hargreaves baseline: −48.4 ± 6.2%
C57BL/6 male mice; Table 25, 50 mg/kg s.c. at day 7, day 8
  mean percent change from Hargreaves baseline: 4.5 ± 9.0%
C57BL/6 male mice; Table 25, 50 mg/kg s.c. at day 7, day 9
  mean percent change from Hargreaves baseline: −15.2 ± 8.5%
C57BL/6 male mice; Table 25, 50 mg/kg s.c. at day 7, day 12
  mean percent change from Hargreaves baseline: −4.2 ± 12.0%
C57BL/6 male mice; Table 25, 50 mg/kg s.c. at day 7, day 15
  mean percent change from Hargreaves baseline: 2.1 ± 10.9%
C57BL/6 male mice; Table 25, 50 mg/kg s.c. at day 7, day 19
  mean percent change from Hargreaves baseline: −11.5 ± 12.1%
C57BL/6 male mice; Table 25, 50 mg/kg s.c. at day 7, day 22
  mean percent change from Hargreaves baseline: −5.7 ± 9.5%
C57BL/6 male mice; Table 25, 50 mg/kg s.c. at day 7 post-surgery, Baseline
  mean percent change from Hargreaves baseline: 0.0 ± 0.0%
C57BL/6 male mice; Table 26, 50 mg/kg i.p. at day 7, day 5 after surgery
  mean percent change from Hargreaves baseline: −56.6 ± 2.3%
C57BL/6 male mice; Table 26, 50 mg/kg i.p. at day 7, day 7
  mean percent change from Hargreaves baseline: −62.3 ± 3.4%
C57BL/6 male mice; Table 26, 50 mg/kg i.p. at day 7, day 8
  mean percent change from Hargreaves baseline: −3.3 ± 16.0%
C57BL/6 male mice; Table 26, 50 mg/kg i.p. at day 7, day 9
  mean percent change from Hargreaves baseline: −18.4 ± 12.9%
C57BL/6 male mice; Table 26, 50 mg/kg i.p. at day 7, day 12
  mean percent change from Hargreaves baseline: −7.0 ± 11.8%
C57BL/6 male mice; Table 26, 50 mg/kg i.p. at day 7, day 15
  mean percent change from Hargreaves baseline: −16.2 ± 14.8%
C57BL/6 male mice; Table 26, 50 mg/kg i.p. at day 7 post-surgery, Baseline
  mean percent change from Hargreaves baseline: 0.0 ± 0.0%
[4]
  % binding to TrkC-hFc surface: 8%
Rat NGF (rNGF); Table 5
  Kd: 1.5 pM
Rat NGF (rNGF); Table 6, selected purified antibodies
  Kd: 1.51 pM
